Data from ChEMBL document CHEMBL5500378, “Discovery of 4-benzylpiperazinequinoline BChE inhibitor that suppresses neuroinflammation for the treatment of Alzheimer's disease” (Eur J Med Chem, 2024).
Activity calls are given as the source filed them. The calls are words filed in the database; no cut-off is given here.

What was measured:
[1] = AUC (0 to t) in plasma of ICR mouse at 10 mg/kg, IG measured at 10 to 240 mins by LC-MS/MS analysis; format: ADME, organism-based; conditions: in vivo, po, time 10-240 min
BV-2 [2] = assay: Anti-inflammatory activity against mouse BV-2 cells assessed as decrease in LPS-induced IFN-gamma level at 2 to 6 uM preincubated for 1 hr followed by LPS addition and incubated overnight by ELISA; format: functional, cell-based; conditions: dose 2-6 µM
[3] = Cmax in brain of ICR mouse at 10 mg/kg, IG measured at 10 to 240 mins by LC-MS/MS analysis; format: ADME, organism-based; conditions: po, time 10-240 min
[4] = Toxicity in ICR mouse model of Amyloid beta(1 to 42)-induced cognitive impairment assessed as body weight change at 10 mg/kg, IG for 12 days; format: organism-based; conditions: in vivo, po, 288 h, time 12 day
[5] = AUC (0 to t) in Sprague-Dawley rat at 10 mg/kg, IG measured for 2880 mins by LC-MS/MS analysis; format: ADME, organism-based; conditions: in vivo, po
[6] = Toxicity in ICR mouse model of Amyloid beta(1 to 42)-induced cognitive impairment assessed as change in body appearance at 10 mg/kg, IG for 12 days; format: organism-based; conditions: in vivo, po, 288 h, time 12 day
[7] = Tmax in plasma of ICR mouse at 10 mg/kg, IG measured at 10 to 240 mins by LC-MS/MS analysis; format: ADME, organism-based; conditions: in vivo, po, time 10-240 min
Mus musculus [8] = assay: Neuroprotective activity in ICR mouse model of Amyloid beta(1 to 42)-induced cognitive impairment assessed as decrease in Amyloid beta expression in brain at 10 mg/kg, IG for 12 days by ELISA; format: functional, organism-based; conditions: time 12.0 day
Mus musculus [9] = assay: Anti-inflammatory activity in ICR mouse model assessed as reduction in serum IL-1beta level at 10 mg/kg, IG pretreated for 10 days followed by LPS treatment for 4 days by ELISA; format: functional, organism-based; conditions: time 14.0 day
[10] = MRT (infinity) in Sprague-Dawley rat at 10 mg/kg, iv measured for 2880 mins by LC-MS/MS analysis; format: ADME, organism-based; conditions: in vivo, 48 h
[11] = Tmax in Sprague-Dawley rat at 10 mg/kg, IG measured for 2880 mins by LC-MS/MS analysis; format: ADME, organism-based; conditions: in vivo, po
[12] = Ratio of Cmax in brain to plasma of ICR mouse at 10 mg/kg, IG measured at 10 to 240 mins by LC-MS/MS analysis; format: ADME, organism-based; conditions: po, time 10-240 min
[13] = AUC (0 to infinity) in Sprague-Dawley rat at 10 mg/kg, iv measured for 2880 mins by LC-MS/MS analysis; format: ADME, organism-based; conditions: in vivo
[14] = Cmax in plasma of ICR mouse at 10 mg/kg, IG measured at 10 to 240 mins by LC-MS/MS analysis; format: ADME, organism-based; conditions: in vivo, po, time 10-240 min
BV-2 [15] = assay: Anti-inflammatory activity against mouse BV-2 cells assessed as decrease in LPS-induced IL-6 level at 2 to 6 uM preincubated for 1 hr followed by LPS addition and incubated overnight by ELISA; format: functional, cell-based; conditions: dose 2-6 µM
[16] = Ratio of AUC in brain to plasma of ICR mouse at 10 mg/kg, IG measured at 10 to 240 mins by LC-MS/MS analysis; format: ADME, organism-based; conditions: po, time 10-240 min
[17] = AUC (0 to t) in Sprague-Dawley rat at 10 mg/kg, iv measured for 2880 mins by LC-MS/MS analysis; format: ADME, organism-based; conditions: in vivo
Mus musculus [18] = assay: Neuroprotective activity in ICR mouse model of Amyloid beta(1 to 42)-induced cognitive impairment assessed as increase in AChE expression in brain at 10 mg/kg, IG for 12 days by ELISA; format: functional, organism-based; conditions: time 12.0 day
[19] = system: Antioxidant response element; assay: Induction of ARE in human HepG2-ARE-C8 cells incubated for 24 hrs by luciferase based assay; format: cell-based; conditions: HepG2-ARE-C8, 24 h
[20] = molecular target: Acetylcholinesterase (Electrophorus electricus) (UniProt O42275); assay: Inhibition of electric eel AChE using ATC as substrate at 10 uM incubated for 2 mins by Ellman's method relative to control
Chain of Acetylcholinesterase (Electrophorus electricus) (O42275 24-633 limits assumed): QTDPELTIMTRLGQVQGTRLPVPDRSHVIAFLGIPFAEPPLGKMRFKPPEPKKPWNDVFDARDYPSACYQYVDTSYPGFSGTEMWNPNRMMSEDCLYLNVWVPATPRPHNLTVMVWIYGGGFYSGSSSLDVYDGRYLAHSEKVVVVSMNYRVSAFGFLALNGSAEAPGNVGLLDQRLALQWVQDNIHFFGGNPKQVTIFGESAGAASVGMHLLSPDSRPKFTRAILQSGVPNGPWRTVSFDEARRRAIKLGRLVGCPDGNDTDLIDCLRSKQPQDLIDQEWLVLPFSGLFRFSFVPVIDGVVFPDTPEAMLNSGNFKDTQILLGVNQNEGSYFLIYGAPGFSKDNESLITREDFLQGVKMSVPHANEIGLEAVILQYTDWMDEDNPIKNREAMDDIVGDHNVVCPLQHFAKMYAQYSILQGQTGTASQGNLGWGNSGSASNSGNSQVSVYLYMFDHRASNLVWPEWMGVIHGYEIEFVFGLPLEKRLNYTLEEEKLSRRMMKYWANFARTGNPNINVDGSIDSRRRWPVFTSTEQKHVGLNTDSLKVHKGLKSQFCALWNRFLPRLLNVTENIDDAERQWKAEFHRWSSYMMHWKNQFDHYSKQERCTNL

[21] = Tmax in Sprague-Dawley rat at 10 mg/kg, iv measured for 2880 mins by LC-MS/MS analysis; format: ADME, organism-based; conditions: in vivo
Mus musculus [22] = assay: Anti-inflammatory activity in ICR mouse model assessed as shorter platform latency at 10 mg/kg, IG pretreated for 10 days followed by LPS treatment for 4 days by Moris water maze test; format: functional, organism-based; conditions: time 14.0 day
[23] = Neurotoxicity against human SH-SY5Y cells by MTT assay; format: toxicity, cell-based
[24] = Drug concentration in brain of ICR mouse at 10 mg/kg, IG measured at about 22 mins by LC-MS/MS analysis; format: ADME, organism-based; conditions: po, read-out: Ct
BV-2 [25] = assay: Anti-inflammatory activity against mouse BV-2 cells assessed as decrease in LPS-induced TNF-alpha level at 5 uM preincubated for 1 hr followed by LPS addition and incubated overnight by immunofluorescence based analysis; format: functional, cell-based
SH-SY5Y = assay: Neuroprotective activity against Amyloid beta(1 to 42)-induced neuronal damage in human SH-SY5Y cells assessed as increase in cell survival at 1 to 10 uM pretreated for 1 hr followed by Amyloid beta(1 to 42) addition measured after 24 hrs by MTT assay; format: functional, cell-based; conditions: dose 1-10 µM, time 25.0 hrs
[26] = Neurotoxicity against rat PC12 cells by MTT assay; format: toxicity, cell-based; conditions: pc-12
[27] = Half life in brain of ICR mouse at 10 mg/kg, IG measured at 10 to 240 mins by LC-MS/MS analysis; format: ADME, organism-based; conditions: po, time 10-240 min
Mus musculus [28] = assay: Anti-inflammatory activity in ICR mouse model assessed as reduction in trajectory confusion at 10 mg/kg, IG pretreated for 10 days followed by LPS treatment for 4 days by Moris water maze test; format: functional, organism-based; conditions: time 14.0 day
BV-2 [29] = assay: Inhibition of ROS production in LPS-induced mouse BV-2 cells assessed as decrease in green fluorescence intensity at 2.5 to 10 uM pretreated for 1 hr followed by LPS addition and incubated overnight by DCFH-DA staining based analysis; format: functional, cell-based; conditions: dose 2.5-10 µM
PC-12 [30] = assay: Neuroprotective activity against H2O2-induced neuronal damage in rat PC12 cells assessed as increase in cell viability pretreated for 1 hr followed by H2O2 addition measured after 24 hrs by MTT assay; format: functional, cell-based; conditions: dose <= 20.0 µM, time 25.0 hrs
[31] = Oral bioavailability in Sprague-Dawley rat at 10 mg/kg, IG or 10 mg/kg, iv measured for 2880 mins by LC-MS/MS analysis; format: ADME, organism-based; conditions: in vivo
Mus musculus [32] = assay: Anti-inflammatory activity in ICR mouse model assessed as reduction in serum TNF-alpha level at 10 mg/kg, IG pretreated for 10 days followed by LPS treatment for 4 days by ELISA; format: functional, organism-based; conditions: time 14.0 day
[33] = Toxicity in ICR mouse assessed as body weight change administered orally for 14 days consecutively; conditions: in vivo, po, 336 h, time 14 day
PC-12 [34] = assay: Neuroprotective activity against H2O2-induced neuronal damage in rat PC12 cells assessed as increase in cell viability at 20 uM pretreated for 1 hr followed by H2O2 addition measured after 24 hrs by MTT assay relative to control; format: functional; conditions: time 25 hrs
[35] = AUC (0 to infinity) in Sprague-Dawley rat at 10 mg/kg, IG measured for 2880 mins by LC-MS/MS analysis; format: ADME, organism-based; conditions: in vivo, po

What does the source list for CCCc1ccc(C(=O)Nc2cnc3ccccc3c2N2CCN(Cc3ccccc3)CC2)cc1?
AUCt [1]: 20051.76 ng·h/mL; Activity (BV-2 [2]): Active; Cmax [3]: 554 ng/mL; Activity [4]: Non-Toxic; AUC(0-t) at 48 h [5]: 5650 ng·h/mL; Activity [6]: Non-Toxic; Tmax [7]: 0.3 h; Activity (Mus musculus [8]): Active; Activity (Mus musculus [9]): Active; MRT [10]: 16.45 h; Tmax [11]: 1 h; Kp [12]: 2.33; AUC(0-inf) [13]: 6070 ng·h/mL; Cmax [14]: 238.2 ng/mL; Activity (BV-2 [15]): Active; Kp [16]: 1.96; AUC(0-t) at 48 h [17]: 6070 ng·h/mL; Activity (Mus musculus [18]): Active; EC50 [19]: 23.5 µM; inhibition [20]: < 50%; Tmax [21]: 1 min; Activity (Mus musculus [22]): Active; Activity [23]: Not Active; concentration at 22 min [24]: 554 ng/mL; Activity (BV-2 [25]): Active; Activity (SH-SY5Y): Active; Activity [26]: Not Active; half-life [27]: 1.6 h; Activity (Mus musculus [28]): Active; inhibition (BV-2 [29]): Active; Activity (PC-12 [30]): Dose-Dependent Effect; bioavailability [31]: 92.3%; Activity (Mus musculus [32]): Active; Activity [33]: Non-Toxic; Activity (PC-12 [34]): >80%; AUC(0-inf) [35]: 5650 ng·h/mL
